Data on 2 molecules can be found in patent US20240294478A1, “ANTI-CANCER COMPOUNDS AND METHODS OF USE” (YALE UNIVERSITY, priority 2021, published 2024).

Common to all, as to type: cell-based, human
For assay [1], the system named is four isogenic LN229 glioblastoma cell lines. Kind of assay: Short-term cell viability assays, statements across the isogenic lines. The following applies: regardless of MMR status. On the procedure: LN229 MGMT- and MGMT+ cell lines were a gift from B. Kaina (Johannes Gutenberg University Mainz, Mainz, Germany) and grown in Gibco® Duilbecco's Modified Eagle Medium with 10% fetal bovine serum (DMEM). For each compound tested, the relationship between MGMT status and MMR status and compound activity, in terms of IC50 values ([…]), was determined by the following method. On day 1, LN229 isogenic cells of varying MGMT and MMR status were seeded in 96 well format at a density of 2000 cells/well in 100 μL of DMEM media and allowed to adhere overnight. On day 2, a drug master plate was made with 100×the desired maximal concentration of test compound and serially diluted by 2 until 100×the minimal desired concentration, with one DMSO control. Then daughter plates were created with varied concentrations from 3-times the minimal concentration to 3-times the maximal desired concentration. Afterwards, 50 μL of daughter drug plate was added to 100 μL of the seeded cells for a final concentration of 1×in triplicate. Cells were allowed to grow for 6 days. On day 7, the cells were fixed, and stained with Hoechst nuclear dye and imaged to determine growth inhibition.
For each compound tested, the relationship between MGMT status and MMR status and compound activity, in terms of IC50 values (in μM), was determined. In addition, for each compound, the therapeutic index (TI) was calculated, according to the equation MGMT TI=IC50 (MGMT+/MMR+) divided by IC50 (MGMT−/MMR+). The T1 indicates the efficacy of a compound in treating the targeted MGMT-cancer cells as compared to potential for the same compound to damage, or have adverse effects against, normal cells which are MGMT+cells, The higher the value of the TI, the safer the compound is. […] MMR RI (resistance index)=IC50 (MGMT−/MMR−) divided by IC50 (MGMT−/MMR+). The higher the value of the RI, the less likely that resistance to the compound will develop.
Short-term Cell Viability Assay. Cells were seeded in 96-well plates at 1000 or 2000 cells/well and allowed to adhere at 23° C. for 60 min and then incubated overnight at 37° C. Cells were treated with indicated concentrations of compounds in triplicate for 4-6 days prior to fixation with 3.7% paraformaldehyde and nuclear staining with 1 μg/mL Hoechst 33342 dye. Cells were imaged on a Cytation 3 imaging reader (BioTek) and quantified using CellProfiler software. For in vitro short-term growth delay experiments, IC50 values were determined from the nonlinear regression equation, [inhibitor] vs normalized response with variable slope.

For assay [2], the system named is MGMT+ LN229 cells. Kind of assay: Clonogenic survival assay, LN229 MGMT+ cells. As to the method:
In vitro clonogenic survival assays (CSAs) were performed using four isogenic LN229 glioblastoma cell lines.
Clonogenic Cell Survival Assay. Cells of each line were pretreated with the test drug in culture for 48-72 hours at the specified dilutions. The cells were then immediately seeded in six-well plates in triplicate at three-fold dilutions, ranging from 9000 to 37 cells per well. Depending on colony size, these plates were kept in the incubator for 10 to 14 days. After incubation, colonies were washed in phosphate-buffered saline (PBS) and stained with crystal violet. Colonies were counted by hand. Counts were normalized to plating efficiency of the corresponding treatment condition.

Assay [3] relates to MGMT−/MMR+ cells. The experiment in a line: IR alkaline comet assay, LN229 MGMT-/MMR+. The following applies: for IR-induced comet tail (ICL formation): 200 μM; for comet tailing in the absence of IR: TMZ 200 μM, KL-50 200 μM, MMC 0.1 or 50 μM. As to the method: (§1) The IR alkaline comet assay, adapted for ICL detection was performed to determine if ICLs were formed in MGMT-cells treated with KL-50. In this assay, cells were sequentially exposed to genotoxins and ionizing radiation, and then analyzed by single cell alkaline gel electrophoresis. Attenuation of the IR-induced comet tail is indicative of ICL formation.
IR Alkaline Comet Assay. This assay was performed utilizing the CometAssay™ Kit (Trevigen) according to the alkaline assay protocol, with the addition of slide irradiation post-lysis. Cells were trypsinized, washed with 1×PBS, added to melted Comet LMAgarose (Trevigen), and spread on Trevigen CometSlides at a density of 1000 cells per sample in 50 μL. Lysis solution (Trevigen) with 10% DMSO was added overnight at 4° C. […] Slides were then placed in alkaline buffer (200 mM NaOH, 1 mM EDTA) for 45 min, followed by electrophoresis in 850 mL alkaline buffer for 45 min at 4° C. Slides were washed and stained with SYBR gold (Invitrogen) per Trevigen assay protocol. Slides were imaged on a Cytation 3 imaging reader (BioTek), and comets were analyzed using CometScore 2.0 software (TriTek).

Assay [4] deals with MGMT−/MMR− cells. Kind of assay: IR alkaline comet assay, LN229 MGMT-/MMR-, time course. The settings on record: time points 2-24 h. As to the method: as §1
IR Alkaline Comet Assay. This assay was performed utilizing the CometAssay™ Kit (Trevigen) according to the alkaline assay protocol, with the addition of slide irradiation post-lysis. Cells were trypsinized, washed with 1×PBS, added to melted Comet LMAgarose (Trevigen), and spread on Trevigen CometSlides at a density of 1000 cells per sample in 50 μL. Lysis solution (Trevigen) with 10% DMSO was added overnight at 4° C. Slides were removed from lysis buffer and irradiated to 0 or 10 Gy using an XRAD 320 X-Ray System (Precision X-Ray) at 320 kV, 12.5 mA, and 50.0 cm SSD, with a 2 mm Al filter and 20 cm×20 cm collimator. Slides were then placed in alkaline buffer (200 mM NaOH, 1 mM EDTA) for 45 min, followed by electrophoresis in 850 mL alkaline buffer for 45 min at 4° C. Slides were washed and stained with SYBR gold (Invitrogen) per Trevigen assay protocol. Slides were imaged on a Cytation 3 imaging reader (BioTek), and comets were analyzed using CometScore 2.0 software (TriTek).

Turning to `NC(=O)c1ncn2c(=O)n(CCF)nnc12` [KL-50], the “activity in MGMT+ cells, in words” value in assay [1] is reported as “limited activity”. Also, the “clonogenic survival, toxicity to MGMT+ cells” value in assay [2] (at doses up to at least 200 μM) is reported as “minimal toxicity”. In assay [3], the “IR-induced comet tail (ICL formation)” value is reported as “reduced the % DNA in the tail to levels similar to those seen for 0.1 μM MMC” and the “comet tailing in the absence of IR” value was “induced tailing”. Besides, in assay [4], the “DNA damage in unirradiated samples” value is given as “maximal damage at 2 h” and the “DNA mobility after IR, rate of ICL formation” value was “time-dependent decrease in DNA mobility”.
On to `Cn1nnc2c(C(N)=O)ncn2c1=O` [TMZ, 4-methyl-5-oxo-2,3,4,6,8-pentazabicyclo[4.3.0]nona-2,7,9-triene-9-carboxamide, reference compound], for which the “activity in MGMT+ cells, in words” value in assay [1] is “essentially inactive”. Moreover, in assay [2] (irrespective of MMR status), the “clonogenic survival, activity in MGMT+ cells” value is “negligible activity”. Further, in assay [3], the “IR-induced comet tail (ICL formation)” value is “did not reduce DNA migration following IR” and the “comet tailing in the absence of IR” value is on record as “induced tailing”. Besides, in assay [4], the “DNA damage in unirradiated samples” value is reported as “maximal damage at 2 h” and the “DNA mobility after IR, rate of ICL formation” value is “did not induce a statistically significant decrease in DNA migration within 24 h”.
